Reference: ChEMBL document CHEMBL3045802, “Synthesis and in vitro antitumor activity of new quinoline, pyrimido[4,5-b]quinoline, [1,2,3]triazino[4,5-b]quinoline, and [1,2,4]triazolo[2,3:3,4]pyrimido[6,5-b]quinoline analogs” (2013)

Key:
Type in all cases: functional
RXF 393 = test: Cytotoxicity against Homo sapiens (human) RXF393 cells assessed as growth inhibition at 10 uM after 48 hr by coulter counter analysis; details: RXF 393, 48 h, read-out: GI
786-0 = test: Cytotoxicity against Homo sapiens (human) 786-0 cells assessed as growth inhibition at 10 uM after 48 hr by coulter counter analysis; details: 786-0, 48 h, read-out: GI
HCT-15 = test: Cytotoxicity against Homo sapiens (human) HCT15 cells assessed as growth inhibition at 10 uM after 48 hr by coulter counter analysis; details: HCT-15, 48 h, read-out: GI
UACC-257 = test: Cytotoxicity against Homo sapiens (human) UACC257 cells assessed as growth inhibition at 10 uM after 48 hr by coulter counter analysis; details: UACC-257, 48 h, read-out: GI
T47D = test: Cytotoxicity against Homo sapiens (human) T47D cells assessed as growth inhibition at 10 uM after 48 hr by coulter counter analysis; details: read-out: GI
M14 = test: Cytotoxicity against Homo sapiens (human) M14 cells assessed as growth inhibition at 10 uM after 48 hr by coulter counter analysis; details: M14, 48 h, read-out: GI
OVCAR-8 = test: Cytotoxicity against Homo sapiens (human) OVCAR8 cells assessed as growth inhibition at 10 uM after 48 hr by coulter counter analysis; details: OVCAR-8, 48 h, read-out: GI
A498 = test: Cytotoxicity against Homo sapiens (human) A498 cells assessed as growth inhibition at 10 uM after 48 hr by coulter counter analysis; details: A498, 48 h, read-out: GI
HL-60(TB) = test: Cytotoxicity against Homo sapiens (human) HL-60(TB) cells assessed as growth inhibition at 10 uM after 48 hr by coulter counter analysis; details: HL-60, 48 h, read-out: GI
SK-MEL-28 = test: Cytotoxicity against Homo sapiens (human) SK-MEL-28 cells assessed as growth inhibition at 10 uM after 48 hr by coulter counter analysis; details: SK-MEL-28, 48 h, read-out: GI
UO-31 = test: Cytotoxicity against Homo sapiens (human) UO31 cells assessed as growth inhibition at 10 uM after 48 hr by coulter counter analysis; details: UO-31, 48 h, read-out: GI
MCF7 = test: Cytotoxicity against Homo sapiens (human) MCF7 cells assessed as growth inhibition at 10 uM after 48 hr by coulter counter analysis; details: MCF7, 48 h, read-out: GI
SF-539 = test: Cytotoxicity against Homo sapiens (human) SF539 cells assessed as growth inhibition at 10 uM after 48 hr by coulter counter analysis; details: SF-539, 48 h, read-out: GI
SR = test: Cytotoxicity against Homo sapiens (human) SR cells assessed as growth inhibition at 10 uM after 48 hr by coulter counter analysis; details: read-out: GI
MDA-MB-435 = test: Cytotoxicity against Homo sapiens (human) MDA-MB-435 cells assessed as growth inhibition at 10 uM after 48 hr by coulter counter analysis; details: MDA-MB-435, 48 h, read-out: GI
HT-29 = test: Cytotoxicity against Homo sapiens (human) HT-29 cells assessed as growth inhibition at 10 uM after 48 hr by coulter counter analysis; details: HT-29, 48 h, read-out: GI
SNB-19 = test: Cytotoxicity against Homo sapiens (human) SNB19 cells assessed as growth inhibition at 10 uM after 48 hr by coulter counter analysis; details: SNB-19, 48 h, read-out: GI
SF-295 = test: Cytotoxicity against Homo sapiens (human) SF295 cells assessed as growth inhibition at 10 uM after 48 hr by coulter counter analysis; details: SF-295, 48 h, read-out: GI
OVCAR-4 = test: Cytotoxicity against Homo sapiens (human) OVCAR4 cells assessed as growth inhibition at 10 uM after 48 hr by coulter counter analysis; details: OVCAR-4, 48 h, read-out: GI
OVCAR-5 = test: Cytotoxicity against Homo sapiens (human) OVCAR5 cells assessed as growth inhibition at 10 uM after 48 hr by coulter counter analysis; details: OVCAR-5, 48 h, read-out: GI
HCC 2998 = test: Cytotoxicity against Homo sapiens (human) HCC2998 cells assessed as growth inhibition at 10 uM after 48 hr by coulter counter analysis; details: HCC 2998, 48 h, read-out: GI
PC-3 = test: Cytotoxicity against Homo sapiens (human) PC3 cells assessed as growth inhibition at 10 uM after 48 hr by coulter counter analysis; details: PC-3, 48 h, read-out: GI
[1] = Cytotoxicity against Homo sapiens (human) NCI-ADR-RES cells assessed as growth inhibition at 10 uM after 48 hr by coulter counter analysis; details: read-out: GI
OVCAR-3 = test: Cytotoxicity against Homo sapiens (human) OVCAR3 cells assessed as growth inhibition at 10 uM after 48 hr by coulter counter analysis; details: OVCAR-3, 48 h, read-out: GI
HOP-62 = test: Cytotoxicity against Homo sapiens (human) HOP62 cells assessed as growth inhibition at 10 uM after 48 hr by coulter counter analysis; details: HOP-62, 48 h, read-out: GI
CAKI-1 = test: Cytotoxicity against Homo sapiens (human) Caki1 cells assessed as growth inhibition at 10 uM after 48 hr by coulter counter analysis; details: CAKI-1, 48 h, read-out: GI
HOP-92 = test: Cytotoxicity against Homo sapiens (human) HOP92 cells assessed as growth inhibition at 10 uM after 48 hr by coulter counter analysis; details: HOP-92, 48 h, read-out: GI
RPMI-8226 = test: Cytotoxicity against Homo sapiens (human) RPMI8226 cells assessed as growth inhibition at 10 uM after 48 hr by coulter counter analysis; details: RPMI-8226, 48 h, read-out: GI
NCI-H226 = test: Cytotoxicity against Homo sapiens (human) NCI-H226 cells assessed as growth inhibition at 10 uM after 48 hr by coulter counter analysis; details: NCI-H226, 48 h, read-out: GI
IGROV-1 = test: Cytotoxicity against Homo sapiens (human) IGROV1 cells assessed as growth inhibition at 10 uM after 48 hr by coulter counter analysis; details: IGROV-1, 48 h, read-out: GI
SK-MEL-2 = test: Cytotoxicity against Homo sapiens (human) SK-MEL-2 cells assessed as growth inhibition at 10 uM after 48 hr by coulter counter analysis; details: SK-MEL-2, 48 h, read-out: GI
SF-268 = test: Cytotoxicity against Homo sapiens (human) SF268 cells assessed as growth inhibition at 10 uM after 48 hr by coulter counter analysis; details: SF-268, 48 h, read-out: GI
COLO 205 = test: Cytotoxicity against Homo sapiens (human) COLO205 cells assessed as growth inhibition at 10 uM after 48 hr by coulter counter analysis; details: COLO 205, 48 h, read-out: GI

| Compound | inhibition of growth at 10 µM (RXF 393) [%] | inhibition of growth at 10 µM (786-0) [%] | inhibition of growth at 10 µM (HCT-15) [%] | inhibition of growth at 10 µM (UACC-257) [%] | inhibition of growth at 10 µM (T47D) [%] | inhibition of growth at 10 µM (M14) [%] | inhibition of growth at 10 µM (OVCAR-8) [%] | inhibition of growth at 10 µM (A498) [%] | inhibition of growth at 10 µM (HL-60(TB)) [%] | inhibition of growth at 10 µM (SK-MEL-28) [%] | inhibition of growth at 10 µM (UO-31) [%] | inhibition of growth at 10 µM (MCF7) [%] | inhibition of growth at 10 µM (SF-539) [%] | inhibition of growth at 10 µM (SR) [%] | inhibition of growth at 10 µM (MDA-MB-435) [%] | inhibition of growth at 10 µM (HT-29) [%] | inhibition of growth at 10 µM (SNB-19) [%] | inhibition of growth at 10 µM (SF-295) [%] | inhibition of growth at 10 µM (OVCAR-4) [%] | inhibition of growth at 10 µM (OVCAR-5) [%] | also measured |
| --- | --- | --- | --- | --- | --- | --- | --- | --- | --- | --- | --- | --- | --- | --- | --- | --- | --- | --- | --- | --- | --- |
| COc1ccc(C2C3=C(CCCC3)Nc3nc(-c4ccc(N(C)C)cc4)[nH]c(=O)c32)cc1OC (centres undefined) | < 10 | < 10 | < 10 | < 10 | 14.9 | < 10 | < 10 | 21.7 | < 10 | < 10 | 29.4 | < 10 | < 10 | < 10 | < 10 | < 10 | < 10 | < 10 | < 10 | < 10 | inhibition of growth at 10 µM (HCC 2998): < 10%; inhibition of growth at 10 µM (PC-3): 11.4%; inhibition of growth at 10 µM [1]: < 10%; inhibition of growth at 10 µM (OVCAR-3): < 10%; inhibition of growth at 10 µM (HOP-62): < 10%; inhibition of growth at 10 µM (CAKI-1): 10.5%; inhibition of growth at 10 µM (HOP-92): < 10%; inhibition of growth at 10 µM (RPMI-8226): < 10%; inhibition of growth at 10 µM (NCI-H226): 13.6%; inhibition of growth at 10 µM (IGROV-1): < 10%; inhibition of growth at 10 µM (SK-MEL-2): < 10%; inhibition of growth at 10 µM (SF-268): < 10%; inhibition of growth at 10 µM (COLO 205): < 10% |
| COc1ccc(-c2nc3c(c(=O)[nH]2)C(c2ccc(OC)c(OC)c2)C2=C(CCCC2)N3)cc1OC (centres undefined) | 10.3 | < 10 | 10.7 | < 10 | 28.3 | < 10 | 12.1 | < 10 | < 10 | < 10 | 66.3 | 34.3 | 14.5 | 21.4 | < 10 | < 10 | < 10 | < 10 | 10.8 | < 10 | inhibition of growth at 10 µM (HCC 2998): < 10%; inhibition of growth at 10 µM (PC-3): 17.1%; inhibition of growth at 10 µM [1]: < 10%; inhibition of growth at 10 µM (OVCAR-3): < 10%; inhibition of growth at 10 µM (HOP-62): 12.3%; inhibition of growth at 10 µM (CAKI-1): 13.5%; inhibition of growth at 10 µM (HOP-92): 26.3%; inhibition of growth at 10 µM (RPMI-8226): 10.8%; inhibition of growth at 10 µM (NCI-H226): 13.3%; inhibition of growth at 10 µM (IGROV-1): < 10%; inhibition of growth at 10 µM (SK-MEL-2): < 10%; inhibition of growth at 10 µM (SF-268): 12.2%; inhibition of growth at 10 µM (COLO 205): 10.3% |
| Clc1ccc(C2C3=C(CCCC3)Nc3ncn4nc(-c5ccccc5)nc4c32)cc1 (centres undefined) | < 10 | < 10 | 10.2 | < 10 | 14.7 | < 10 | < 10 | 20.6 | < 10 | < 10 | 40 | < 10 | < 10 | < 10 | < 10 | 14.4 | < 10 | < 10 | < 10 | < 10 | inhibition of growth at 10 µM (HCC 2998): < 10%; inhibition of growth at 10 µM (PC-3): 19.7%; inhibition of growth at 10 µM [1]: < 10%; inhibition of growth at 10 µM (OVCAR-3): < 10%; inhibition of growth at 10 µM (HOP-62): 16%; inhibition of growth at 10 µM (CAKI-1): 12.4%; inhibition of growth at 10 µM (HOP-92): 14%; inhibition of growth at 10 µM (RPMI-8226): 12.3%; inhibition of growth at 10 µM (NCI-H226): 15.2%; inhibition of growth at 10 µM (IGROV-1): < 10%; inhibition of growth at 10 µM (SK-MEL-2): < 10%; inhibition of growth at 10 µM (SF-268): < 10%; inhibition of growth at 10 µM (COLO 205): 11.5% |
